Measured values: the NIST ThermoML archive (doi:10.1016/j.jct.2016.12.032)
Numbers after ± are expanded uncertainties.

Assays:
[1] = 100 kPa, Liquid; for viscosity: Capillary tube (Ostwald / Ubbelohde) method; for speed of sound: Frequency=3 MHz, Sing-around technique in a fixed-path interferometer; for mass density: Vibrating tube method
[2] = refractive index (Na D-line) (dimensionless); settings: 100 kPa, Liquid, Standard Abbe refractometry
[3] = xn = mol fraction of the nth substance listed; settings: 100 kPa, Liquid, x1 = 1; for viscosity: Capillary tube (Ostwald / Ubbelohde) method; for mass density: Vibrating tube method

Row | SMILES | viscosity ([1]; 293.15 K) [mPa·s] | speed of sound ([1]; 293.15 K) [m/s] | mass density ([1]; 293.15 K) [kg/m3] | viscosity ([1]; 298.15 K) [mPa·s] | speed of sound ([1]; 298.15 K) [m/s] | mass density ([1]; 298.15 K) [kg/m3] | viscosity ([1]; 303.15 K) [mPa·s] | speed of sound ([1]; 303.15 K) [m/s] | mass density ([1]; 303.15 K) [kg/m3] | viscosity ([1]; 308.15 K) [mPa·s] | speed of sound ([1]; 308.15 K) [m/s] | mass density ([1]; 308.15 K) [kg/m3] | viscosity ([1]; 313.15 K) [mPa·s] | speed of sound ([1]; 313.15 K) [m/s] | mass density ([1]; 313.15 K) [kg/m3] | viscosity ([1]; 318.15 K) [mPa·s] | speed of sound ([1]; 318.15 K) [m/s] | mass density ([1]; 318.15 K) [kg/m3] | viscosity ([1]; 323.15 K) [mPa·s] | mass density ([1]; 323.15 K) [kg/m3] | also measured
1 | O=C1CCCCCO1 [6-hexanolactone] | 6.63 ± 0.27 | 1567.8 ± 3.4 | 1075.92 ± 2 | 5.76 ± 0.23 | 1548.3 ± 3.3 | 1071.67 ± 2 | 5.04 ± 0.2 | 1529 ± 3.3 | 1067.41 ± 2 | 4.44 ± 0.18 | 1510 ± 3.3 | 1063.15 ± 2 | 3.95 ± 0.16 | 1491.2 ± 3.2 | 1058.9 ± 2 | 3.53 ± 0.14 | 1472.7 ± 3.2 | 1054.65 ± 2 | 3.17 ± 0.13 | 1050.4 ± 2 | speed of sound ([1]; 323.15 K): 1454.5 ± 3.1 m/s; refractive index ([2]; 293.15 K): 1.463 ± 0.003; refractive index ([2]; 298.15 K): 1.461 ± 0.003; refractive index ([2]; 303.15 K): 1.459 ± 0.003; refractive index ([2]; 308.15 K): 1.457 ± 0.003; refractive index ([2]; 313.15 K): 1.455 ± 0.003; refractive index ([2]; 318.15 K): 1.454 ± 0.003; refractive index ([2]; 323.15 K): 1.452 ± 0.003
2 | CC1CCC(=O)O1 (stereo not drawn) [γ-valerolactone] | 1.99 ± 0.08 | 1447.3 ± 3.1 | 1053.99 ± 2 | 1.82 ± 0.07 | 1429.2 ± 3.1 | 1049.28 ± 2 | 1.67 ± 0.07 | 1411.3 ± 3.1 | 1044.58 ± 2 | 1.53 ± 0.06 | 1393.5 ± 3 | 1039.87 ± 2 | 1.42 ± 0.06 | 1375.9 ± 3 | 1035.16 ± 2 | 1.32 ± 0.05 | 1358.4 ± 3 | 1030.45 ± 2 | 1.23 ± 0.05 | 1025.74 ± 2 | speed of sound ([1]; 323.15 K): 1341.2 ± 2.9 m/s; refractive index ([2]; 293.15 K): 1.434 ± 0.003; refractive index ([2]; 298.15 K): 1.432 ± 0.003; refractive index ([2]; 303.15 K): 1.43 ± 0.003; refractive index ([2]; 308.15 K): 1.427 ± 0.003; refractive index ([2]; 313.15 K): 1.425 ± 0.003; refractive index ([2]; 318.15 K): 1.423 ± 0.003; refractive index ([2]; 323.15 K): 1.421 ± 0.003
3 | CCCC[n+]1ccn(C)c1.O=S(=O)([N-]S(=O)(=O)C(F)(F)F)C(F)(F)F | – | – | 1441.61 ± 2 | – | – | 1436.67 ± 2 | – | – | 1431.58 ± 2 | – | – | 1426.62 ± 2 | – | – | 1421.58 ± 2 | – | – | 1416.58 ± 2 | – | 1411.54 ± 2 | –
4 | CCCC[n+]1ccn(C)c1.O=S(=O)([N-]S(=O)(=O)C(F)(F)F)C(F)(F)F + CC1CCC(=O)O1 | – | – | – | – | – | – | – | – | – | – | – | – | – | – | – | – | – | – | – | – | viscosity ([3]; 293.15 K): 62.08 ± 2.5 mPa·s; mass density ([3]; 293.15 K): 1441.61 ± 2 kg/m3; viscosity ([3]; 298.15 K): 50.05 ± 2 mPa·s; mass density ([3]; 298.15 K): 1436.67 ± 2 kg/m3; viscosity ([3]; 303.15 K): 41.24 ± 1.7 mPa·s; mass density ([3]; 303.15 K): 1431.58 ± 2 kg/m3; viscosity ([3]; 308.15 K): 33.65 ± 1.4 mPa·s; mass density ([3]; 308.15 K): 1426.62 ± 2 kg/m3; viscosity ([3]; 313.15 K): 28.28 ± 1.1 mPa·s; mass density ([3]; 313.15 K): 1421.58 ± 2 kg/m3; viscosity ([3]; 318.15 K): 23.91 ± 0.97 mPa·s; mass density ([3]; 318.15 K): 1416.58 ± 2 kg/m3; viscosity ([3]; 323.15 K): 20.64 ± 0.84 mPa·s; mass density ([3]; 323.15 K): 1411.54 ± 2 kg/m3
5 | CCCC[n+]1ccn(C)c1.O=S(=O)([N-]S(=O)(=O)C(F)(F)F)C(F)(F)F + O=C1CCCCCO1 | – | – | – | – | – | – | – | – | – | – | – | – | – | – | – | – | – | – | – | – | viscosity ([3]; 293.15 K): 62.08 ± 2.5 mPa·s; mass density ([3]; 293.15 K): 1441.61 ± 2 kg/m3; viscosity ([3]; 298.15 K): 50.05 ± 2 mPa·s; mass density ([3]; 298.15 K): 1436.67 ± 2 kg/m3; viscosity ([3]; 303.15 K): 41.24 ± 1.7 mPa·s; mass density ([3]; 303.15 K): 1431.58 ± 2 kg/m3; viscosity ([3]; 308.15 K): 33.65 ± 1.4 mPa·s; mass density ([3]; 308.15 K): 1426.62 ± 2 kg/m3; viscosity ([3]; 313.15 K): 28.28 ± 1.1 mPa·s; mass density ([3]; 313.15 K): 1421.58 ± 2 kg/m3; viscosity ([3]; 318.15 K): 23.91 ± 0.97 mPa·s; mass density ([3]; 318.15 K): 1416.58 ± 2 kg/m3; viscosity ([3]; 323.15 K): 20.64 ± 0.84 mPa·s; mass density ([3]; 323.15 K): 1411.54 ± 2 kg/m3
6 | CCCC[n+]1ccn(C)c1.O=S(=O)([N-]S(=O)(=O)C(F)(F)F)C(F)(F)F + O=C1CCCCO1 | – | – | – | – | – | – | – | – | – | – | – | – | – | – | – | – | – | – | – | – | viscosity ([3]; 293.15 K): 62.08 ± 2.5 mPa·s; mass density ([3]; 293.15 K): 1441.61 ± 2 kg/m3; viscosity ([3]; 298.15 K): 50.05 ± 2 mPa·s; mass density ([3]; 298.15 K): 1436.67 ± 2 kg/m3; viscosity ([3]; 303.15 K): 41.24 ± 1.7 mPa·s; mass density ([3]; 303.15 K): 1431.58 ± 2 kg/m3; viscosity ([3]; 308.15 K): 33.65 ± 1.4 mPa·s; mass density ([3]; 308.15 K): 1426.62 ± 2 kg/m3; viscosity ([3]; 313.15 K): 28.28 ± 1.1 mPa·s; mass density ([3]; 313.15 K): 1421.58 ± 2 kg/m3; viscosity ([3]; 318.15 K): 23.91 ± 0.97 mPa·s; mass density ([3]; 318.15 K): 1416.58 ± 2 kg/m3; viscosity ([3]; 323.15 K): 20.64 ± 0.84 mPa·s; mass density ([3]; 323.15 K): 1411.54 ± 2 kg/m3
7 | CC1CC(=O)O1 (stereo not drawn) [4-methyl-2-oxetanone] | 1.68 ± 0.07 | 1371 ± 3 | 1055.93 ± 2 | 1.55 ± 0.06 | 1352.8 ± 3 | 1050.68 ± 2 | 1.48 ± 0.06 | 1334.7 ± 2.9 | 1045.31 ± 2 | 1.4 ± 0.06 | 1316.7 ± 2.9 | 1039.85 ± 2 | 1.33 ± 0.05 | 1298.8 ± 2.9 | 1034.33 ± 2 | 1.25 ± 0.05 | 1281.1 ± 2.8 | 1028.79 ± 2 | 1.18 ± 0.05 | 1023.19 ± 2 | speed of sound ([1]; 323.15 K): 1263.6 ± 2.8 m/s; refractive index ([2]; 293.15 K): 1.414 ± 0.003; refractive index ([2]; 298.15 K): 1.412 ± 0.003; refractive index ([2]; 303.15 K): 1.41 ± 0.003; refractive index ([2]; 308.15 K): 1.407 ± 0.003; refractive index ([2]; 313.15 K): 1.405 ± 0.003; refractive index ([2]; 318.15 K): 1.403 ± 0.003; refractive index ([2]; 323.15 K): 1.401 ± 0.003
8 | CCCC[n+]1ccn(C)c1.O=S(=O)([N-]S(=O)(=O)C(F)(F)F)C(F)(F)F + CC1CC(=O)O1 | – | – | – | – | – | – | – | – | – | – | – | – | – | – | – | – | – | – | – | – | viscosity ([3]; 293.15 K): 62.08 ± 2.5 mPa·s; mass density ([3]; 293.15 K): 1441.61 ± 2 kg/m3; viscosity ([3]; 298.15 K): 50.05 ± 2 mPa·s; mass density ([3]; 298.15 K): 1436.67 ± 2 kg/m3; viscosity ([3]; 303.15 K): 41.24 ± 1.7 mPa·s; mass density ([3]; 303.15 K): 1431.58 ± 2 kg/m3; viscosity ([3]; 308.15 K): 33.65 ± 1.4 mPa·s; mass density ([3]; 308.15 K): 1426.62 ± 2 kg/m3; viscosity ([3]; 313.15 K): 28.28 ± 1.1 mPa·s; mass density ([3]; 313.15 K): 1421.58 ± 2 kg/m3; viscosity ([3]; 318.15 K): 23.91 ± 0.97 mPa·s; mass density ([3]; 318.15 K): 1416.58 ± 2 kg/m3; viscosity ([3]; 323.15 K): 20.64 ± 0.84 mPa·s; mass density ([3]; 323.15 K): 1411.54 ± 2 kg/m3
9 | O=C1CCCCO1 [1-oxacyclohexan-2-one] | 3.68 ± 0.15 | 1587.2 ± 3.4 | 1108.53 ± 2 | 3.3 ± 0.13 | 1569.2 ± 3.4 | 1103.96 ± 2 | 2.98 ± 0.12 | 1551.3 ± 3.3 | 1099.44 ± 2 | 2.7 ± 0.11 | 1533.5 ± 3.3 | 1094.83 ± 2 | 2.47 ± 0.1 | 1516 ± 3.3 | 1090.27 ± 2 | 2.25 ± 0.09 | 1498.6 ± 3.2 | 1085.71 ± 2 | 2.09 ± 0.09 | 1081.16 ± 2 | speed of sound ([1]; 323.15 K): 1481.5 ± 3.2 m/s
